Columns and labels:
S. aureus DSM 20231 = assay: fitness (endpoint OD595 vs no drug) (fraction); higher = more growth
Outline: (§1)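 Fitness was measured as bacterial growth in 384-well plates inoculated at OD595 0.01 (30 µl, or 55 µl for S. pneumoniae). Media were TSB, LB Lennox or CY, at 37 °C. OD595 was read every 30 min for 14 h and background-subtracted against the first reading. Fitness is OD595 at the transition into stationary phase divided by the robust mean of no-drug control wells, capped at 1.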

S. pneumoniae D39V = assay: as above
Outline: as §1
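Also: OD595 on entry to stationary phase over no-drug wells; at most 1.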

CC(=O)Oc1ccccc1C(=O)O [Acetylsalicylic acid] + CN(C)[C@@H]1C(O)=C(C(N)=O)C(=O)[C@@]2(O)C(O)=C3C(=O)c4c(O)ccc(Cl)c4[C@@](C)(O)[C@H]3C[C@@H]12 [Chlortetracycline]
S. aureus DSM 20231, partner 0.006 µg/mL, one replicate
Details	fitness
first compound 250 µg/mL	0.686
first compound 500 µg/mL	0.525
first compound 1000 µg/mL	0.342

fitness
Details	partner 0.012 µg/mL	partner 0.024 µg/mL	partner 0.048 µg/mL	partner 0.375 µg/mL	partner 0.75 µg/mL	partner 1.5 µg/mL
S. aureus DSM 20231, first compound 250 µg/mL	0.525	–	–	–	–	–
S. aureus DSM 20231, first compound 500 µg/mL	0.467	0.221	0.0964	–	–	–
S. aureus DSM 20231, first compound 1000 µg/mL	0.21	0.0899	0.0347	–	–	–
S. pneumoniae D39V, first compound 250 µg/mL	0.842	0.658	0.322	0.123	0.119	0.101
S. pneumoniae D39V, first compound 500 µg/mL	0.831	0.606	0.281	0.129	0.0804	0.138
S. pneumoniae D39V, first compound 1000 µg/mL	0.669	0.47	0.297	0.0772	0.0378	0.0721

CC(=O)Oc1ccccc1C(=O)O [Acetylsalicylic acid] + Cc1cc(NS(=O)(=O)c2ccc(N)cc2)no1 [Sulfamethoxazol]
fitness
Details	first compound 250 µg/mL	first compound 500 µg/mL	first compound 1000 µg/mL
S. aureus DSM 20231, partner 1 µg/mL	0.862	0.683	0.53
S. aureus DSM 20231, partner 2 µg/mL	0.855	–	0.522
S. aureus DSM 20231, partner 4 µg/mL	0.844	–	–
S. pneumoniae D39V, partner 1 µg/mL	0.941	0.905	0.78
S. pneumoniae D39V, partner 2 µg/mL	0.946	0.926	0.811
S. pneumoniae D39V, partner 4 µg/mL	0.909	0.872	0.842

CC(=O)Oc1ccccc1C(=O)O [Acetylsalicylic acid] + CO/N=C(\C(=O)N[C@@H]1C(=O)N2C(C(=O)O)=C(COC(C)=O)CS[C@H]12)c1csc(N)n1 [Cefotaxime]
fitness
Details	partner 0.0018 µg/mL	partner 0.0035 µg/mL	partner 0.007 µg/mL	partner 0.039 µg/mL	partner 0.078 µg/mL	partner 0.156 µg/mL	partner 0.312 µg/mL
S. aureus DSM 20231, first compound 250 µg/mL	–	–	–	0.706	0.695	0.641	0.605
S. aureus DSM 20231, first compound 500 µg/mL	–	–	–	0.614	0.608	0.561	0.507
S. aureus DSM 20231, first compound 1000 µg/mL	–	–	–	0.509	0.443	0.343	0.148
S. pneumoniae D39V, first compound 250 µg/mL	0.984	0.967	0.936	–	–	–	–
S. pneumoniae D39V, first compound 500 µg/mL	≥ 1	0.992	0.962	–	–	–	–
S. pneumoniae D39V, first compound 1000 µg/mL	0.97	0.89	0.823	–	–	–	–

CC(=O)Oc1ccccc1C(=O)O [Acetylsalicylic acid] + CN[C@@H]1[C@H](O)[C@H](NC)[C@H]2O[C@@]3(O)C(=O)C[C@@H](C)O[C@H]3O[C@@H]2[C@H]1O [Spectinomycin]
fitness
Details	partner 4 µg/mL	partner 8 µg/mL	partner 16 µg/mL
S. aureus DSM 20231, first compound 250 µg/mL	0.871	0.866	–
S. pneumoniae D39V, first compound 250 µg/mL	0.934	0.911	0.817
S. pneumoniae D39V, first compound 500 µg/mL	0.862	0.801	0.691
S. pneumoniae D39V, first compound 1000 µg/mL	0.64	0.601	0.536

fitness, S. aureus DSM 20231, one replicate
Details	first compound 250 µg/mL	first compound 500 µg/mL	first compound 1000 µg/mL
partner 32 µg/mL	0.541	0.631	0.101
partner 64 µg/mL	0.253	0.32	0.042

CC(=O)Oc1ccccc1C(=O)O [Acetylsalicylic acid] + Cc1ncc([N+](=O)[O-])n1CCO [Metronidazole]
fitness
Details	partner 0.625 µg/mL	partner 1.073 µg/mL	partner 1.25 µg/mL	partner 2.145 µg/mL	partner 2.5 µg/mL	partner 4.29 µg/mL	partner 5 µg/mL
S. aureus DSM 20231, first compound 250 µg/mL	0.939	–	≥ 1	–	≥ 1	–	–
S. aureus DSM 20231, first compound 500 µg/mL	0.778	–	0.791	–	0.759	–	–
S. pneumoniae D39V, first compound 250 µg/mL	–	0.982	0.971	0.959	0.989	0.937	0.972
S. pneumoniae D39V, first compound 500 µg/mL	–	0.979	0.975	0.965	1	0.975	0.965
S. pneumoniae D39V, first compound 1000 µg/mL	–	0.946	0.906	0.936	0.914	0.932	0.915

CC(=O)Oc1ccccc1C(=O)O [Acetylsalicylic acid] + CC[C@H]1OC(=O)[C@H](C)[C@@H](O[C@H]2C[C@@](C)(OC)[C@@H](O)[C@H](C)O2)[C@H](C)[C@@H](O[C@@H]2O[C@H](C)C[C@H](N(C)C)[C@H]2O)[C@](C)(O)C[C@@H](C)CN(C)[C@H](C)[C@@H](O)[C@]1(C)O [Azithromycin]
fitness, S. aureus DSM 20231
Details	first compound 250 µg/mL	first compound 500 µg/mL	first compound 1000 µg/mL
partner 0.125 µg/mL	0.806	0.714	0.601
partner 0.25 µg/mL	0.83	0.748	0.614
partner 0.5 µg/mL	0.702	–	0.597

CC(=O)Oc1ccccc1C(=O)O [Acetylsalicylic acid] + C[C@@H]1O[C@@H]1P(=O)(O)O [Fosfomycin]
fitness
Details	first compound 250 µg/mL	first compound 500 µg/mL	first compound 1000 µg/mL
S. aureus DSM 20231, partner 0.781 µg/mL	0.621	0.619	0.51
S. aureus DSM 20231, partner 1.562 µg/mL	0.537	0.546	0.438
S. aureus DSM 20231, partner 3.124 µg/mL	0.487	0.452	0.283
S. pneumoniae D39V, partner 1.25 µg/mL	0.989	0.955	0.862
S. pneumoniae D39V, partner 2.5 µg/mL	0.939	0.939	0.82
S. pneumoniae D39V, partner 5 µg/mL	0.831	0.88	0.791

CN(C)[C@@H]1C(O)=C(C(N)=O)C(=O)[C@@]2(O)C(O)=C3C(=O)c4c(O)ccc(Cl)c4[C@@](C)(O)[C@H]3C[C@@H]12 [Chlortetracycline] + CCCCCCCCCC(=O)N[C@@H]1[C@H]([C@@H]([C@H](O[C@H]1OC2=C3C=C4C=C2OC5=C(C=C(C=C5)[C@H]([C@H]6C(=O)N[C@@H](C7=C(C(=CC(=C7)O)OC8[C@H]([C@H]([C@@H]([C@H](O8)CO)O)O)O)C9=C(C=CC(=C9)[C@H](C(=O)N6)NC(=O)[C@@H]4NC(=O)[C@@H]1C2=CC(=CC(=C2)OC2=C(C=CC(=C2)[C@H](C(=O)N[C@H](CC2=CC(=C(O3)C=C2)Cl)C(=O)N1)N)O)O)O)C(=O)O)O[C@H]1[C@@H]([C@H]([C@@H]([C@H](O1)CO)O)O)NC(=O)C)Cl)CO)O)O [Teicoplanin]
S. aureus DSM 20231, first compound 0.006 µg/mL, one replicate, main component drawn
Details	fitness
partner 0.1562 µg/mL	0.707
partner 0.3125 µg/mL	0.905
partner 0.625 µg/mL	0.997

fitness, S. aureus DSM 20231, main component drawn
Details	partner 0.1562 µg/mL	partner 0.3125 µg/mL	partner 0.625 µg/mL
first compound 0.012 µg/mL	0.656	–	0.756
first compound 0.048 µg/mL	0.0926	0.0866	0.0794

CN(C)[C@@H]1C(O)=C(C(N)=O)C(=O)[C@@]2(O)C(O)=C3C(=O)c4c(O)ccc(Cl)c4[C@@](C)(O)[C@H]3C[C@@H]12 [Chlortetracycline] + Cn1nnc(-c2ccc(-c3ccc(N4C[C@H](CO)OC4=O)cc3F)cn2)n1 [Tedizolid]
S. aureus DSM 20231, first compound 0.006 µg/mL, one replicate
Details	fitness
partner 0.0625 µg/mL	0.696
partner 0.125 µg/mL	0.659
partner 0.25 µg/mL	0.361

fitness
Details	first compound 0.012 µg/mL	first compound 0.024 µg/mL	first compound 0.048 µg/mL	first compound 0.375 µg/mL	first compound 0.75 µg/mL	first compound 1.5 µg/mL
S. aureus DSM 20231, partner 0.0625 µg/mL	0.496	0.236	0.0517	–	–	–
S. aureus DSM 20231, partner 0.125 µg/mL	0.532	0.172	0.0562	–	–	–
S. aureus DSM 20231, partner 0.25 µg/mL	0.25	0.161	0.102	–	–	–
S. pneumoniae D39V, partner 0.03125 µg/mL	0.966	0.949	0.944	–	–	–
S. pneumoniae D39V, partner 0.0625 µg/mL	0.95	0.962	0.878	–	–	–
S. pneumoniae D39V, partner 0.125 µg/mL	0.795	0.789	0.845	0.0202	0.0366	0.0518
S. pneumoniae D39V, partner 0.25 µg/mL	–	–	–	0.0375	0.043	0.0385
S. pneumoniae D39V, partner 0.5 µg/mL	–	–	–	0.0294	0.0348	0.0435

CC(=O)Oc1ccccc1C(=O)O [Acetylsalicylic acid] + O=C(N[C@H](CO)[C@H](O)c1ccc([N+](=O)[O-])cc1)C(Cl)Cl [Chloramphenicol]
fitness, S. aureus DSM 20231
Details	first compound 250 µg/mL	first compound 500 µg/mL	first compound 1000 µg/mL
partner 0.75 µg/mL	0.688	–	0.307
partner 1.5 µg/mL	0.498	–	0.225
partner 3 µg/mL	0.136	0.098	0.0799

CC(=O)Oc1ccccc1C(=O)O [Acetylsalicylic acid] + N[C@@H]1CONC1=O [Cycloserine D]
S. aureus DSM 20231, first compound 250 µg/mL
Details	fitness
partner 0.375 µg/mL	0.96
partner 0.75 µg/mL	0.953
partner 1.5 µg/mL	0.93

CC(=O)Oc1ccccc1C(=O)O [Acetylsalicylic acid] + COc1cc(Cc2cnc(N)nc2N)cc(OC)c1OC [Trimethoprim]
fitness, S. aureus DSM 20231
Details	partner 0.125 µg/mL	partner 0.25 µg/mL	partner 0.5 µg/mL	partner 1 µg/mL
first compound 250 µg/mL	0.582	0.516	0.225	0.0606
first compound 500 µg/mL	–	–	0.276	0.0647
first compound 1000 µg/mL	0.4	–	0.23	0.0318

— the supplement of paper PMC10627819
